Reference: ChEMBL document CHEMBL1909046, “DrugMatrix in vitro pharmacology data”

Experiments:
[1] = target: T1, Alpha-2C adrenergic receptor (Homo sapiens, UniProt P18825); assay: DRUGMATRIX: Adrenergic Alpha-2C radioligand binding (ligand: [3H] MK-912); type: cell membranes, Sf9, Membrane; details: sf9
T1 sequence (P18825 whole entry): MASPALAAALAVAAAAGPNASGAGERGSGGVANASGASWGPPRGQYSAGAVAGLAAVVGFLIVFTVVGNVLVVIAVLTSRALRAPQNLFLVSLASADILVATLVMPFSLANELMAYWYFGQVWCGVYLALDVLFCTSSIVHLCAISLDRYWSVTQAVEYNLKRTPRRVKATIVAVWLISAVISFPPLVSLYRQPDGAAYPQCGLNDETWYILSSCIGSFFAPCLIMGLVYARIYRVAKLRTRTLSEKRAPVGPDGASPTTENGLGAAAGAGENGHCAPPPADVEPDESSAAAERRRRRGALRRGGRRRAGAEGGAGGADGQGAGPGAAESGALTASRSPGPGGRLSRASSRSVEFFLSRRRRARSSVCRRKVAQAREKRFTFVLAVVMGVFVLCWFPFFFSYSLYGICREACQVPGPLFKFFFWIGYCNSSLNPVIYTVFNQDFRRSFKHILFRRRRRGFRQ

[2] = target: Sigma non-opioid intracellular receptor 1 (Homo sapiens, UniProt Q99720); assay: DRUGMATRIX: Sigma1 radioligand binding (ligand: [3H] Haloperidol); type: cell membranes, Jurkat, Membrane; details: jurkat; Not Active = under 50% inhibition at 10 µM
Sequence of Sigma non-opioid intracellular receptor 1 (Q99720 whole entry): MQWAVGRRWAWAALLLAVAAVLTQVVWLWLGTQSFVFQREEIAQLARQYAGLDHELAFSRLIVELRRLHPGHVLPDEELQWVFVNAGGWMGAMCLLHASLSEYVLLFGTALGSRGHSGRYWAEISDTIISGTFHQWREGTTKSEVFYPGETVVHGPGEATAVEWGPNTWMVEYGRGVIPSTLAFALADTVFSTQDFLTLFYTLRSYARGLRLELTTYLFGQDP

[3] = target: Vascular endothelial growth factor receptor 1 (Homo sapiens, UniProt P17948); type: cell-based; details: huvec; further: in other assays of this panel Not Active means under 50% inhibition at 10 µM
Sequence of Vascular endothelial growth factor receptor 1 (P17948 whole entry): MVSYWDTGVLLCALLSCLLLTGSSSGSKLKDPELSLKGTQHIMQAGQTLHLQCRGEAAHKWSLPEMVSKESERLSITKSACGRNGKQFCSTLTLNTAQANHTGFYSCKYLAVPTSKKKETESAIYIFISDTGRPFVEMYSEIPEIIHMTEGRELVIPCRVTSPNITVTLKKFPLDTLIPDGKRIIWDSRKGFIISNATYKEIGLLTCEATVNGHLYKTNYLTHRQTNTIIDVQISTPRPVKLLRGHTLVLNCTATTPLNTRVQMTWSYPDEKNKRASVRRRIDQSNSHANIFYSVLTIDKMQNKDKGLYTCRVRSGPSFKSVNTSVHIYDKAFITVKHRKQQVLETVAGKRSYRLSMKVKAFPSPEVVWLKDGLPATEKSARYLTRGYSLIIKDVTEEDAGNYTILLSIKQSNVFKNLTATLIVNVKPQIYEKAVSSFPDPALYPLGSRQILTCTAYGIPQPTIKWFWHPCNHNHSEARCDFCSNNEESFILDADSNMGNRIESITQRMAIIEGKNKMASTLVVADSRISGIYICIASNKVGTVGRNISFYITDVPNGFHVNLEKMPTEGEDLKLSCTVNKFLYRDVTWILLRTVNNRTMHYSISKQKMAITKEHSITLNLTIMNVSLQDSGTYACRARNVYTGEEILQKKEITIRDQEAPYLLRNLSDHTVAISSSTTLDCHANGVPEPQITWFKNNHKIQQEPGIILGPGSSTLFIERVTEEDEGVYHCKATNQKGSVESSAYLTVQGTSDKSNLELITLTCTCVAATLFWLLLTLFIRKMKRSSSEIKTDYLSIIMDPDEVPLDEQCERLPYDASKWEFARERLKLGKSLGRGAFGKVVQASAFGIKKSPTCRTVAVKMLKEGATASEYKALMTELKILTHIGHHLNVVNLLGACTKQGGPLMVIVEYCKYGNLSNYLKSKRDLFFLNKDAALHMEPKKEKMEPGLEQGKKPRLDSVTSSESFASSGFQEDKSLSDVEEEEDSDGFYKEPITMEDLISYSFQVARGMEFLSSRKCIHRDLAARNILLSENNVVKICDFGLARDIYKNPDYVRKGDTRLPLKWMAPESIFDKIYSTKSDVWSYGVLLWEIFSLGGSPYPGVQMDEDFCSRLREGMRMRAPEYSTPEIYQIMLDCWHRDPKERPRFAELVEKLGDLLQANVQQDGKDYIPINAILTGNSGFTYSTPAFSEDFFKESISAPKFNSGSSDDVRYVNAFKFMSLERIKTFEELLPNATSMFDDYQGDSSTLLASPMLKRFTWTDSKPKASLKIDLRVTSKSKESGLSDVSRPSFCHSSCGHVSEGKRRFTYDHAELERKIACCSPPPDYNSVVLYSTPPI

[4] = target: C-C chemokine receptor type 5 (Homo sapiens, UniProt P51681); type: cell membranes, Membrane; details: hek293; further: in other assays of this panel Not Active means under 50% inhibition at 10 µM
Sequence of C-C chemokine receptor type 5 (P51681 whole entry): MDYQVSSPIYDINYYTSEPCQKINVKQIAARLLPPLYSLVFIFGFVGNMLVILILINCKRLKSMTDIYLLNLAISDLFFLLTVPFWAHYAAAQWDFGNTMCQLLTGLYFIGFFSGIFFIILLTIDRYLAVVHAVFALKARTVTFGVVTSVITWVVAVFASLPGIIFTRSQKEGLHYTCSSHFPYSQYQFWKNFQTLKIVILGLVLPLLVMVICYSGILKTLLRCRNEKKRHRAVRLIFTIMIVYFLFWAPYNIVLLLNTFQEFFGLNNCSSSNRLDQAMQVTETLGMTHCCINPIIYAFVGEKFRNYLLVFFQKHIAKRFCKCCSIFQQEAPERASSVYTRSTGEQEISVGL

[5] = target: T2, Neuropeptide Y receptor type 2 (Homo sapiens, UniProt P49146); type: cell membranes, Membrane; details: kan-ts; further: in other assays of this panel Not Active means under 50% inhibition at 10 µM
T2 sequence (P49146 whole entry): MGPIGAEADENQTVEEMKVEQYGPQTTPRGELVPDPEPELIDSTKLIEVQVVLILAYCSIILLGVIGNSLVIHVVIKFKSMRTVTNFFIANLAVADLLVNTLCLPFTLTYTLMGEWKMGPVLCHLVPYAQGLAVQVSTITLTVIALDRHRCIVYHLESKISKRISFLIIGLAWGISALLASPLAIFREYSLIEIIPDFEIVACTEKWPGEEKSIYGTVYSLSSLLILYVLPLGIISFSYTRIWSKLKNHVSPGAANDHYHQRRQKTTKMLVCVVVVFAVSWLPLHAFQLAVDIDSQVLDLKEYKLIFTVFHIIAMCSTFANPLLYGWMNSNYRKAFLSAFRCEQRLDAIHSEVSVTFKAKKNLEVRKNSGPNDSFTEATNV

[6] = target: Matrix metalloproteinase-9 (Homo sapiens, UniProt P14780); type: cell-based;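 further: inhibition of isolated MMP-9 enzyme activity toward a synthetic peptide substrate, from the DrugMatrix protease screening panel; in other assays of this panel Not Active means under 50% inhibition at 10 µM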
Sequence of Matrix metalloproteinase-9 (P14780 whole entry): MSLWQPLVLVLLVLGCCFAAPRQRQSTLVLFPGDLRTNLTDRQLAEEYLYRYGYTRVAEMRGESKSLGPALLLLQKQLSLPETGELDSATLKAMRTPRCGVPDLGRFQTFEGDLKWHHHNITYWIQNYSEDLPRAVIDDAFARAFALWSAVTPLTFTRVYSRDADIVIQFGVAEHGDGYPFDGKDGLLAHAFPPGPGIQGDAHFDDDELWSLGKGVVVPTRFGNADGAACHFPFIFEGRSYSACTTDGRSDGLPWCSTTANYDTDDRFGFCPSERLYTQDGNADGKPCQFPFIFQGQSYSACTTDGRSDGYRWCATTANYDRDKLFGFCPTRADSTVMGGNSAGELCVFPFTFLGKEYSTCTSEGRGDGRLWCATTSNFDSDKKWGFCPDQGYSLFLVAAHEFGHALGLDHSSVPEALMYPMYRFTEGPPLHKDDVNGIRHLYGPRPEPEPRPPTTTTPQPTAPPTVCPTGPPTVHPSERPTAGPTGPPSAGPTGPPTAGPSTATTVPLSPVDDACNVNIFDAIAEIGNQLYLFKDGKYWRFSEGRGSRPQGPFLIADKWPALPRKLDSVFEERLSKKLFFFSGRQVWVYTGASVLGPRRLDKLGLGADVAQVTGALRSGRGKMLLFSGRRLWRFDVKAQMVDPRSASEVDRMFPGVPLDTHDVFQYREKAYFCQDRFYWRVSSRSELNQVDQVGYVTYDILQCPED

[7] = target: Receptor tyrosine-protein kinase erbB-2 (Homo sapiens, UniProt P04626); assay: biochemical; type: cell-based, Insect cells; details: insect cells

Cc1ccc(C(=O)c2ccc(CC(=O)O)n2C)cc1 [TOLMETIN]
Not Active: IC50 [1] | IC50 [2] | IC50 [3] | IC50 [4] | IC50 [5] | IC50 [6] | IC50 [7]

CC(=O)OCC(COC(C)=O)OC(C)=O [TRIACETIN]
Not Active: IC50 [1] | IC50 [2] | IC50 [3] | IC50 [4] | IC50 [5] | IC50 [6] | IC50 [7]

CN1CCN(CCCN2c3ccccc3Sc3ccc(C(F)(F)F)cc32)CC1 [TRIFLUOPERAZINE]
Not Active: IC50 [1] | IC50 [2] | IC50 [3] | IC50 [4] | IC50 [5] | IC50 [6] | IC50 [7]

TRANSPLATIN
Not Active: IC50 [1] | Ki [1] | IC50 [2] | Ki [2] | IC50 [3] | Ki [3] | IC50 [4] | Ki [4] | IC50 [5] | Ki [5] | IC50 [6] | Ki [6] | IC50 [7] | Ki [7]

ZIRCONIUM(IV) CHLORIDE
Not Active: IC50 [1] | Ki [1] | IC50 [2] | Ki [2] | IC50 [3] | Ki [3] | IC50 [4] | Ki [4] | IC50 [5] | Ki [5] | IC50 [6] | Ki [6] | IC50 [7] | Ki [7]
